These results are taken from PMC12874371, “Screening of FDA-Approved Small Molecules to Discover Inhibitors of the Pseudomonas aeruginosa Quorum-Sensing Enzyme, PqsE” (Biochemistry, 2026).

Assay [1] deals with T1, intracellular PqsE (Pseudomonas aeruginosa, UniProt P20581).
T1 construct: endogenous in cells; host or cells: P. aeruginosa UCBPP-PA14 wild type
The assay is classed as cell-based. The note with it: 8 h growth.

The target of assay [2] is T2, PqsE(S285W) (Pseudomonas aeruginosa, UniProt P20581, S285W).
T2 construct: 6xHis (N); made in house; host or cells: E. coli BL21 (DE3), pET28b-6xHis-pqsE(S285W) (strain IT55)
The experiment in a line: biochemical.

Assay [3] deals with T3, PqsE(WT) (Pseudomonas aeruginosa, UniProt P20581).
T3 construct: 6xHis (N); made in house; host or cells: E. coli BL21 (DE3), pET28b-6xHis-pqsE(WT) (strain SM776)
The experiment in a line: biochemical.

Assay [4] deals with azeB expression. The experiment in a line: azeB-luxCDABE reporter (dual pyocyanin/azeB-lux assay). The note with it: 50 and 100 μM, azeB-lux reporter strains.

As a reminder, the IC50 is the point on the concentration scale where inhibition reaches its midpoint. High values mean a need for much substance, low ones inhibition by little substance. For `CN1CCc2cccc3c2[C@H]1Cc1ccc(O)c(O)c1-3` [Apomorphine], the “Effect on acetophenone levels” value in assay [1] (10 and 100 μM) is listed as “no significant effect on acetophenone levels”. The IC50 in assay [2] was 22 µM; in assay [3], 18 µM. For the same compound, in assay [4], the “Effect on azeB expression (luminescence/OD600)” value (“Effect on azeB expression” below) is “not accompanied by increases in azeB expression”.
As for `O=c1n(CCCN2CCN(c3cccc(Cl)c3)CC2)nc2ccccn12` [Trazodone], in assay [4], the “Effect on azeB expression” value was “not accompanied by increases in azeB expression”.
As for `O=C(CCCCCCC(=O)Nc1ccccc1)NO` [Vorinostat], in assay [1] (10 μM, wildtype P. aeruginosa), the Decrease in acetophenone is reported as 30%. The “Effect on acetophenone levels at 100 μM” value in assay [1] (100 μM, compared to pqsE(D73A) strain) was “full inhibition of PqsE catalytic activity”. In assay [3], this compound registered an IC50 of 1.2 µM. Moreover, in assay [4], the “Effect on azeB expression” value is recorded as “not accompanied by increases in azeB expression”.
